Molecule `C=C(C)CO[C@H]1[C@H](C)OC(=O)[C@@H](NC(=O)c2nccc(OC)c2OCc2ccccc2)COC(=O)[C@@H]1Cc1ccccc1` came in with a melting point of 50 to 52 °C. As to `COc1ccnc(C(=O)N[C@H]2COC(=O)[C@H](Cc3ccccc3)[C@@H](OCC(C)C)[C@H](C)OC2=O)c1O`, the melting point is 168 to 169 °C. Next, `CCCO[C@H]1[C@H](C)OC(=O)[C@@H](NC(=O)c2nccc(OC)c2O)COC(=O)[C@@H]1Cc1ccccc1`: 150 to 152 °C; `C=C(C)CO[C@H]1[C@H](C)OC(=O)[C@@H](NC(=O)c2nccc(OC)c2OCOC(C)=O)COC(=O)[C@@H]1Cc1ccccc1`: 102 to 104 °C.

As usually defined, the melting point is the temperature of the solid-liquid transition.

The record behind these values is patent publication US6903219B2 (dated 2005).
